These results are taken from patent US20080096909A1, “APOMORPHINE INHIBITORS OF AMYLOID-BETA (ABETA) FIBRIL FORMATION AND THEIR USE IN AMYLOIDOSIS BASED DISEASE” (priority 2001, published 2008).

For experiment [1], the target named is T1, Aβ 1-40 (Homo sapiens, UniProt P05067). Kind of experiment: Electron microscopy of Aβ aggregates in the presence of inhibitor. It is filed as biochemical. Further details: Amyloid-β (Aβ 1-40) was purchased from California Peptides (Lot # SF104); purchased California Peptides Lot # SF104. On the procedure: Electron Microscopy. Electron microscopy was used to follow the changes in size and structural morphology of Aβ aggregates in the presence and absence of inhibitor at 37° C. as a function of time. EM samples were prepared by placing 5 μL of the Aβ solution on a carbon-coated grid and allowing the solution to stand for 2 min before removing excess solution. The grid was then washed once with distilled water and once with 1% uranyl acetate before staining the sample with fresh 1% uranyl acetate for another 2 min. The samples were then studied in a Phillips CM-100 electron microscope. The grids were thoroughly examined to get an overall statistical evaluation of the structures present in the sample. All electron micrographs were taken at 100 kV.

For experiment [2], the target named is T1, Aβ 1-40. Put plainly: Visible sedimentable aggregates in Aβ 1-40 fibrillization samples. Set-up: Amyloid-β (Aβ 1-40) was purchased from California Peptides (Lot # SF104); purchased California Peptides Lot # SF104. As to conditions: Aβ 1-40 100 μM, apomorphine 100 μM, 37° C., 1-3 days.
Method: Solutions of Aβ 1-40 (50-100 μM) were incubated at 37° C. for 1-3 days in the absence and presence of apomorphine at equimolar concentration.
The target of experiment [3] is T1, Aβ 1-40. Put plainly: Thioflavin T (ThT) fluorescence assay for fibril formation. Set-up: Amyloid-β (Aβ 1-40) was purchased from California Peptides (Lot # SF104); purchased California Peptides Lot # SF104. It counts as biochemical. The procedure: Preparation of Stock Peptide Solutions for Fibrillization Studies. Stock solutions of the inhibitors were prepared by dissolving the compounds at a concentration of 5-7 mM in water or in 1-1.5% DMSO solutions (for compounds with reduced solubility). Amyloid-β (Aβ 1-40) was purchased from California Peptides (Lot # SF104). Aβ 1-40 stock solutions were prepared by dissolving purified and lyophilized peptide in cold double distilled water to yield stock solutions at a concentration of 2 mg/mL. The stock solutions were used within 10-30 minutes of dissolution. Samples for fibril formation assay were prepared by diluting the appropriate amount of Aβ stock with pH 7.4 Tris-HCl buffer (50 mM Tris, 150 mM NaCl) to afford a final peptide concentration of 100 μM. […] Analytical ultracentrifugation, and electron microscopy were periodically used to ensure that we start our experiments with a hydrodynamically defined Aβ monomer, and the absence of any preformed fibrils in solution.
Thioflavin T (ThT) Fluorescence Assay for Fibril Formation. Thioflavin T was purchased from Aldrich (70% purity) and was recrystallized from benzene/ethanol (1:1) to afford yellow crystals (36). Thioflavin T binding assays were performed by addition of 50 μL of 100 μM Aβ solutions, which were incubated at 37° C. in the absence and presence of inhibitors, to 450 μL solution of 10 μM Thioflavin T in phosphate buffer (10 mM phosphate, 100 mM KCl). The solutions were mixed and fluorescence measurements were recorded in Biosystems model spectrofluorimeter at 25° C. using a 1 cm path length quartz cell. An excitation slit width of 4 nm and an emission slit width of 8 nm were employed. The excitation wavelength was set to 450 nm and emission monitored from 460-630 nm. The relative fluorescence at 482 nm was plotted for each sample, and was used as a measure of the amount of fibrillar aggregates in solution.

Experiment [4] deals with T1, Aβ 1-40. Kind of experiment: Congo red binding studies. It counts as biochemical. Set-up: Amyloid-β (Aβ 1-40) was purchased from California Peptides (Lot # SF104); purchased California Peptides Lot # SF104. To be noted: Aβ solutions containing apomorphine, 3 days at 37° C.
Method: Congo Red Binding Studies. […] The concentration of the Congo red stock was determined by measuring the absorbance of a diluted aliquot at 477 nm (ε477 nm=34,722 cm^−1M^−1) (35). Buffered Congo red solutions at the desired concentration were prepared by dilution of an aliquot of the stock solution in 50 mM Tris-HCl, 150 mM NaCl (pH 7.4). Binding studies were carried out by diluting 10 μL of a 100 μM Aβ solutions to 90 μL of 10 μM Congo red buffered solution. The resulting solutions were then vortexed and the UV-Vis spectra (300-700 nm) was collected immediately using a Beckman UV/VIS spectrophotometer in a mini cuvette with a 1 cm pathlength.
The target in experiment [5] is T1, Aβ 1-40. Put plainly: Sedimentation velocity of Aβ quaternary structures in the presence of inhibitors. It is filed as biochemical. Further details: Amyloid-β (Aβ 1-40) was purchased from California Peptides (Lot # SF104); purchased California Peptides Lot # SF104. As to conditions: for Average sedimentation coefficients of two populations of oligomeric species: apomorphine 50 μM. The procedure:
Probing the Mechanism of Amyloid Fibril Formation Inhibition using Sedimentation Velocity Experiments. To probe the mechanism by which apomorphine and its structural analogues inhibit Aβ fibril formation, sedimentation velocity was used to determine the distribution and molecular size of quaternary structures of Aβ in the presence and absence of inhibitors. Aβ samples (100 μM) in a pH 7.4 buffer (50 mM Tris-HCl, 150 mM NaCl) were incubated at 37° C. for 1-10 days in the presence and absence of inhibitors, then transferred to 25° C. for 1-3 hours before the sedimentation experiments were carried out at 20° C. The sedimentation properties of Aβ 1-40 in the absence and presence of inhibitors were obtained from data collected on a temperature controlled Beckman XL-1 using 400-420 μL of peptide solutions and data were recorded at rotor speeds of 3,000-30,000 rpm in continuous mode with a step size of 0.005 cm. The sedimentation velocity absorbance profiles were then analyzed using the time derivative (dc/dt) analysis program, which was provided by J. Philo, to obtain the sedimentation coefficient distribution g(*s) for all the quaternary structures in solution as described previously (37, 38).
Fitting of the g(*s) profiles allows for the determination of the sedimentation coefficient (peak position, with a unit of Svedberg, 1 S=10^−13 s) and the diffusion coefficient (from the peak width, with a unit of Fick, 1 F=[…]). This method has the advantage of allowing for the calculation of the molecular weight of the sedimenting species using equation II since s and D can be obtained from the fitting analysis. [formula]
In the cases where the diffusion coefficient cannot be determined accurately, the molecular weight of a spherical protein can still be estimated by combining the Svedberg equation and Stokes equation for the frictional coefficient to obtain equation III which utilizes the estimated sedimentation coefficient: [formula]
Sedimentation velocity was also used to determine the amount of soluble Aβ and Aβ monomer in solution after sedimentation of Aβ aggregates. […] The percent of monomeric species in solution was calculated using equation IV at 50,000 rpm and after complete sedimentation of Aβ high MW oligomeric species. Sedimentation equilibrium studies of the unsedimented species were carried out to determine whether a monomer, dimer or a mixture was present in solution. % of unsedimented Aβ=1−(Absorbance(290 nm, 3000 rpm)−Absorbance(290 nm, 20,000-30,000 rpm))×100 (IV)

The next experiment addresses T2, monomeric Aβ (Homo sapiens, UniProt P05067).
T2 construct: Amyloid-β (Aβ 1-40) was purchased from California Peptides (Lot # SF104); purchased California Peptides Lot # SF104
Kind of experiment: Sedimentation equilibrium of unsedimented monomeric species, monitored at 330 nm. It is filed as binding.

Where “and” joins values, the source holds several entries; their conditions need not be identical. Equal entries are not always repeated. Entries after “also recorded” stand apart in the source; their conditions may differ.

T1 sequence (P05067 672-711): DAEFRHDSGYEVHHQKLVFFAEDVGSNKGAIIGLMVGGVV
T2 sequence (P05067 672-711): as above
Method for monomeric Aβ: Sedimentation equilibrium runs were performed on AD (100 μM) samples in the absence and presence of inhibitors (150 μL) at pH 7.4 at a rotor speed of 3,000-20,000 rpm using a double sector cell with charcoal-filled epon centerpieces and sapphire windows. All scans were performed at 280 nm or at 330 nm (for solutions containing apomorphine or apomorphine analogues) with a step size of 0.001 cm and 25 averaged scans. Samples were allowed to equilibrate for 24-30 h, and duplicate scans 3 h apart were overlaid to determine that equilibrium had been reached. The data were analyzed by a nonlinear least squares analysis using the Origin software provided by Beckman.
Analytical ultracentrifugation methods were also employed to probe the mechanism of interaction of these molecules with Aβ. […] To investigate whether apomorphine binds to monomeric Aβ, we carried out a sedimentation equilibrium experiment on the remaining monomeric species by monitoring at 330 nm, where apomorphine is the sole contributor to the absorbance at this wavelength.

Take `CN1CCc2cccc3c2C1Cc1ccc(O)c(O)c1-3` (single isomer, unassigned; (-)) [apomorphine, (−)-10,11-dihydroxyaporphine]: the “Species seen by electron microscopy” value at Aβ 1-40 [1] (Aβ 1-40 100 μM, apomorphine 50 μM) is “both long unbranched fibrils and short nonfibrillar assemblies were observed”; at Aβ 1-40 [1] (Aβ 1-40 100 μM, apomorphine 100 μM), “accumulation of predominantly soluble, nonfibrillar assemblies”. Further, the “Nonfibrillar assemblies as share of species in solution” value on Aβ 1-40 [1] (Aβ 1-40 100 μM, apomorphine 50 μM, 3-6 days at 37° C.) was 70-85%. Further, the “Species by sedimentation velocity and EM” value on Aβ 1-40 [1] (Aβ 1-40 100 μM, apomorphine 200 μM, 37° C., 2-6 days) is “stabilization of soluble oligomeric species”. In addition, the “Fibril formation at apomorphine concentrations below 50 μM” value on Aβ 1-40 [1] (Aβ 1-40 100 μM, apomorphine <50 μM, 3-9 days at 37° C.) was “significant fibrils were formed; also recorded: not effective as an inhibitor”. Also, on Aβ 1-40 [1] (Aβ pre-incubated 18-20 hr at 37° C., then three to nine days with compound), the “Protofibril assembly into fibrils when compound is added to pre-incubated Aβ (EM and sedimentation velocity)” value was “exhibited similar behavior”. The “Inhibition of Aβ fibril formation by EM, aged or freshly prepared stock solutions” value on Aβ 1-40 [1] (three to four days at 37° C.) is listed as “effective inhibition of Aβ fibril formation”. In addition, the Visible sedimentable aggregates result on Aβ 1-40 [2] is given as “did not show any visible sedimentable aggregates”. Besides, the “Thioflavin T fluorescence at 482 nm (amount of fibrils)” value at Aβ 1-40 [3] (Aβ 1-40 100 μM incubated with compound, pH 7.4, 37° C., 3 days) is “did not exhibit this typical fluorescence; also recorded: did not affect the ThT fluorescence spectra; also recorded: signal near background”. For the same molecule, the “Thioflavin T signal after longer incubation” value at Aβ 1-40 [3] (longer incubation at 37° C., some long fibrils formed) was “did not exhibit any changes”. Moreover, the “Thioflavin T signal with sodium metabisulphite added” value at Aβ 1-40 [3] (stock solutions containing 1% (v/v) sodium metabisulphite, 37° C., pH 7.4, 3 days) is listed as “restoration of the ThT signal”. The “Congo red maximal absorbance and red-shifted maximum” value at Aβ 1-40 [4] was “no increase in the maximal absorbance and red-shifted maximum”. Also, the “Amount of nonfibrillar assemblies (protofibrils) formed by Aβ alone relative to that obtained in the presence of compound” value at Aβ 1-40 [5] (20 hour incubation) is recorded as roughly 30%. The “Average sedimentation coefficients of two populations of oligomeric species” value at Aβ 1-40 [5] (Aβ 100 μM) was 35 S and 56 S; on Aβ 1-40 [5] (Aβ 100 μM, listed as apomorhine) it was 35 S and 56 S. For the same molecule, the “Average sedimentation coefficient of Aβ-apomorphine complex(s)” value at Aβ 1-40 [5] (Aβ 100 μM, apomorphine 100 μM, 3 days, 30,000 rpm) came out at 50 S. On Aβ 1-40 [5] (apomorphine at equimolar ratio to Aβ 1-40), the “Sedimentation of Aβ 1-40 at 3,000 rpm (fibrils)” value is recorded as “no sedimentation of Aβ 1-40 was observed”. For the same molecule, the “Increase in amount of soluble protofibrils” value on Aβ 1-40 [5] (incubation 17-24 h at 37° C., in the presence of apomorphine) stood at 60%. Besides, on Aβ 1-40 [5] (incubation 17-24 h at 37° C., Aβ alone 20 S), the “Sedimentation coefficient after addition of apomorphine” value is 30 S. In addition, the “Molecular weight from single species fit of sedimentation equilibrium” value on monomeric Aβ (remaining monomeric species, monitored at 330 nm) is recorded as 4,430 g/mol. Also, the “Binding to monomeric Aβ” value on monomeric Aβ (sedimentation equilibrium at 330 nm) is “bound to monomeric Aβ”.
